Laboratory results taken from patent US10703796B2, “CD44v6-derived cyclic peptides for treating cancers and angiogenesis related diseases” (AMCURE GMBH, priority 2014, dated 2020).
Bridges are numbered along the chain shown (N, C = ends). Where no end group is shown, it is not given here. [ ]: non-standard residue; d: D form.

Experiments:
Assay type in all cases: cell-based, human
[1] = test system: Panc 1 cells; assay: Wound healing assay, Example 9 (FIG. 15); details: 500 nM, HGF 100 ng/ml, photos up to 48 hours after induction
Experimental: Cell migration is connected to angiogenesis where cells need to migrate in order to form new blood vessels. Angiogenesis is related to cancer metastasis.
Panc 1 cells were seeded in 6-well plates at a concentration of 3×10^5 cells per well and were allowed to adhere and form a confluent monolayer. After a starving period of 24 hours, a scratch was inserted using a sterile pipette tip. Medium was aspirated to remove scratched cells and replaced by new starving medium. containing reagents as indicated at a concentration of […] tested for their blocking quality.
The following reagents were added to the medium at a concentration of 500 nM to test their blocking efficiency: D3-epga1, D4-epga1, D2-epal1, D3-epal1, D4-epal1, D3-alga1, D3-alga2, D4-alga2, D5-alga2, D6-alga3, Epga-1, Epal-1, Alga-2 and Alga-3. After 30 min incubation at 37° C., growth factor HGF was added to induce migration (HGF 100 ng/ml). Photos of the cells were taken immediately after scratch (Day 1), 24 hours (Day 2) and 48 hours (D3) after induction using a Canon Power Shot G12 digital camera.

[2] = test system: Erk; assay: HGF-induced activation of Erk in Panc1 cells (blot of activated Erk vs total Erk); details: peptide 30 nM for 5 min at 37° C. prior to HGF 10 ng/ml for 5 min
Experimental: (§1) Human adenocarcinoma cells, Panc1, were seeded at 2×10^5 cells per well in a 6-well plate. The day after seeding the cells, they were starved for 24 h. The following day, the cells were treated as indicated with either alga1 or D3alga1, a control peptide (N-A-A-A-E (SEQ ID NO: 37)) at a concentration of 30 nM for 5 min at 37° C. prior to induction with HGF (10 ng/ml) at 37° C. for 5 min. Results are given in FIG. 3 (A: alga1; B: D3alga1).
(§2) Human adenocarcinoma cells, Panc1, were seeded at 2×10^5 cells per well in a 6-well plate. The day after seeding, the cells were starved for 24 h. The following day, the cells were treated as indicated with either D1alga1, D2alga1 or D3alga1, a human CD44v6 14mer (h14mer) or control peptide (N-A-A-A-E (SEQ ID NO: 37)) at a concentration of 30 nM for 5 min at 37° C. prior to induction with HGF (10 ng/ml) at 37° C. for 5 min.

[3] = test system: c-Met; assay: HGF-induced activation of c-Met in Panc1 cells (blot of activated Met vs total Met); details: peptide 30 nM for 5 min at 37° C. prior to HGF 10 ng/ml for 5 min
Experimental: as §1, §2

| Substance | blocking of cell migration [1] | activation of Erk [2] | activation of c-Met [3] |
| --- | --- | --- | --- |
| cy[αKGNRWHEγ] (KGNRW[dH]E; lactam N-7) [D6-alga3, cyclisation via N-terminal amino group of K and side chain carboxyl group of E, H is a D-amino acid] | Most efficient blocking of cell migration |  |  |
| D1alga1: cyclic CD44v6 5mer containing a D-amino acid at position 1 ([dK]RWHE; lactam N-5) |  | blocks activation of c-Met and Erk | blocks activation of c-Met |
| cy[εKRWHEα]γ] (K[dR]WHE; lactam 1-C; also: cyclised per cy[εKRWHEα]γ], linkage unclear) [D2-epal1] | Most efficient blocking of cell migration |  |  |
| D2alga1: cyclic CD44v6 5mer containing a D-amino acid at position 2 (K[dR]WHE; lactam N-5) |  | blocks activation of c-Met and Erk | blocks activation of c-Met |
| D3-epga1: cyclic 5 mer, ep/ga cyclisation, D-amino acid at position 3 per naming scheme (FIG. 13) (KR[dW]HE; lactam 1-5) | efficient in blocking cell migration |  |  |
| cy[αKNRWHEγ] (lactam N-6) [Alga-2] | Most efficient blocking of cell migration |  |  |
